Read-outs that look alike come from different tables or passages of the source.
Experiments:
[1] = tested on: GM-CSF; settings: IL1β 10 ng/ml, 24 hours, no serum
Source text: (§1) A clonal derivative of ATCC-certified normal chondrocytes was used for a study to determine cytokine expression. The parent line was originally derived from costal cartilage of adolescent […]. The cell line used is C-28/I2 accession number CVCL 0187. The cells were immortalized via retroviral vector-mediated SV40 Large T antigen expression. Cells were confirmed negative for mycoplasma contamination and genotyped by STR analysis to verify cell identity. This cell line is widely used as a model for studying normal and pathological cartilage repair mechanisms and inflammation.
(§2) The cells were cultured at 37° C. with 5% CO2, DMEM/F12 media supplemented with 10% heat-inactivated fetal bovine serum. Antimicrobials were not added to the media. Cells were maintained between 40 and 80% confluency to avoid terminal differentiation. Cells used for the experiments had been passaged no more than ten times prior to each experiment.

[2] = tested on: chondrocytes (C-28/I2); experiment: toxicity screen, maximum tolerable concentration in chondrocytes
Source text: as §1, §2
A series of pilot studies were performed to design the final full-scale experiment. First, a toxicity screen for each test compound was performed to establishment maximum tolerable concentrations in this model system. Second, assays were run to establish the optimal means of inducing a pro-inflammatory state in the cell culture system. Third, conditions were tested to set the most favorable dilution scheme in order to maintain samples within the linear range of detection for each analyte. To establish the test concentrations for each test compound, chondrocytes were treated with a serial dilution of each compound, for 24 and 48 hours under serum free conditions. Oleocanthal or CBD were tested at two-fold dilutions down from 50 micromolar (μM).

[3] = High level (CBD 6.00 μM, niacin 900 μM), FIG. 1, 2C
[4] = Moderate level (CBD 2.00 μM, niacin 300 μM), FIG. 1, 2B
[5] = 24 hours post-treatment, serum free, chondrocytes, microscopy (vacuolation, blebbing, reduced cell count), unit not given

Row | Compound | effect on GM-CSF expression [1, 3] | effect on GM-CSF expression [1, 4] | maximum tolerable concentration [2, 5] | maximum tolerable concentration ([2]; human, 24 h) [mM]
1 | C=C(C)[C@@H]1CCC(C)=C[C@H]1c1c(O)cc(CCCCC)cc1O [CBD, cannabidiol] | This effect was not seen | This effect was not seen | 604 | –
2 | O=C(O)c1cccnc1 [niacin, nicotinic acid] | This effect was not seen | This effect was not seen | – | 1
3 | C/C=C(/C=O)[C@@H](CC=O)CC(=O)OCCc1ccc(O)cc1 [oleocanthal] | – | – | 604 | –
